How the values were obtained:
Assay in all cases: relative viability (nuclei count vs DMSO), 5 days (fraction); higher = more cells survive
Tipifarnib + Palbociclib = compound: Cn1cncc1[C@@](N)(c1ccc(Cl)cc1)c1ccc2c(c1)c(-c1cccc(Cl)c1)cc(=O)n2C [Tipifarnib] + CC(=O)c1c(C)c2cnc(Nc3ccc(N4CCNCC4)cn3)nc2n(C2CCCC2)c1=O [Palbociclib] (partner 0.5 µM)
How it was run: (§1)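 Lung cancer cell lines were pin-tool dosed in 1536-well plates on the day after seeding, with either a lone drug or a fixed anchor-drug dose plus five library-drug doses (not always all listed) in √10 steps. Nuclei were counted on 4× images after 5 days. Relative viability is the ratio of treated-well to vehicle-well nuclei counts, with each value a median of duplicate plates.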

Tipifarnib + Dasatinib = compound: Cn1cncc1[C@@](N)(c1ccc(Cl)cc1)c1ccc2c(c1)c(-c1cccc(Cl)c1)cc(=O)n2C [Tipifarnib] + Cc1nc(Nc2ncc(C(=O)Nc3c(C)cccc3Cl)s2)cc(N2CCN(CCO)CC2)n1 [Dasatinib] (partner 0.075 µM)
How it was run: as §1

Tipifarnib + Luminespib = compound: Cn1cncc1[C@@](N)(c1ccc(Cl)cc1)c1ccc2c(c1)c(-c1cccc(Cl)c1)cc(=O)n2C [Tipifarnib] + CCNC(=O)c1noc(-c2cc(C(C)C)c(O)cc2O)c1-c1ccc(CN2CCOCC2)cc1 [Luminespib] (partner 0.01 µM)
How it was run: as §1

Tipifarnib + Bortezomib = compound: Cn1cncc1[C@@](N)(c1ccc(Cl)cc1)c1ccc2c(c1)c(-c1cccc(Cl)c1)cc(=O)n2C [Tipifarnib] + CC(C)C[C@H](NC(=O)[C@H](Cc1ccccc1)NC(=O)c1cnccn1)B(O)O [Bortezomib] (partner 0.002 µM)
How it was run: as §1

| Cell Line | relative viability (Tipifarnib + Palbociclib; first compound 0.01 µM) | relative viability (Tipifarnib + Palbociclib; first compound 0.03162 µM) | relative viability (Tipifarnib + Palbociclib; first compound 0.1 µM) | relative viability (Tipifarnib + Palbociclib; first compound 0.3162 µM) | relative viability (Tipifarnib + Palbociclib; first compound 1 µM) | relative viability (Tipifarnib + Dasatinib; first compound 0.01 µM) | relative viability (Tipifarnib + Dasatinib; first compound 0.03162 µM) | relative viability (Tipifarnib + Dasatinib; first compound 0.1 µM) | relative viability (Tipifarnib + Dasatinib; first compound 0.3162 µM) | relative viability (Tipifarnib + Dasatinib; first compound 1 µM) | relative viability (Tipifarnib + Luminespib; first compound 0.01 µM) | relative viability (Tipifarnib + Luminespib; first compound 0.03162 µM) | relative viability (Tipifarnib + Luminespib; first compound 0.1 µM) | relative viability (Tipifarnib + Luminespib; first compound 0.3162 µM) | relative viability (Tipifarnib + Luminespib; first compound 1 µM) | relative viability (Tipifarnib + Bortezomib; first compound 0.01 µM) | relative viability (Tipifarnib + Bortezomib; first compound 0.03162 µM) | relative viability (Tipifarnib + Bortezomib; first compound 0.1 µM) | relative viability (Tipifarnib + Bortezomib; first compound 0.3162 µM) | relative viability (Tipifarnib + Bortezomib; first compound 1 µM) |
| --- | --- | --- | --- | --- | --- | --- | --- | --- | --- | --- | --- | --- | --- | --- | --- | --- | --- | --- | --- | --- |
| COR-L 105 | 0.403 | 0.385 | 0.416 | 0.408 | 0.365 | 0.32 | 0.355 | 0.341 | 0.327 | 0.255 | 0.692 | 0.775 | 0.475 | 0.432 | 0.675 | 0.869 | 0.591 | 0.706 | 0.444 | 0.403 |
| LK-2 | 0.586 | 0.543 | 0.481 | 0.474 | 0.42 | 0.276 | 0.261 | 0.27 | 0.299 | 0.191 | 0.191 | 0.172 | 0.207 | 0.172 | 0.175 |  |  |  |  |  |
| NCI-H727 | 0.693 | 0.596 | 0.599 | 0.652 | 0.615 | 0.443 | 0.422 | 0.421 | 0.503 | 0.62 | 0.341 | 0.401 | 0.533 | 0.462 | 0.432 | 0.893 | 0.802 | 0.856 | 0.656 | 0.607 |
| RERF-LC-KJ | 1.22 | 1.12 | 0.957 | 0.813 | 0.784 | 0.884 | 0.778 | 0.724 | 0.535 | 0.574 | 1.2 | 0.924 | 1.07 | 0.605 | 0.654 | 1.1 | 1.1 | 0.85 | 0.694 | 0.717 |
| NCI-H2023 | 0.297 | 0.284 | 0.238 | 0.211 | 0.202 | 0.561 | 0.427 | 0.325 | 0.299 | 0.217 | 0.749 | 0.486 | 0.386 | 0.337 | 0.286 | 1.27 | 0.757 | 0.45 | 0.453 | 0.156 |
| NCI-H322M | 0.521 | 0.548 | 0.515 | 0.459 | 0.508 | 0.236 | 0.27 | 0.259 | 0.246 | 0.285 | 0.854 | 0.85 | 0.676 | 0.665 | 0.554 | 1.27 | 1.32 | 1.18 | 1.05 | 0.947 |
| NCI-H1666 | 0.684 | 0.676 | 0.695 | 0.626 | 0.663 | 0.791 | 0.779 | 0.785 | 0.748 | 0.605 | 1 | 0.92 | 0.94 | 0.842 | 0.806 | 0.801 | 0.793 | 0.671 | 0.614 | 0.442 |
| NCI-H1648 | 0.253 | 0.304 | 0.279 | 0.285 | 0.45 |  |  |  |  |  |  |  |  |  |  |  |  |  |  |  |
| NCI-H2087 | 0.212 | 0.233 | 0.23 | 0.11 | 0.193 | 0.764 | 0.405 | 0.289 | 0.264 | 0.21 | 0.185 | 0.154 | 0.165 | 0.141 | 0.152 | 0.705 | 0.418 | 0.375 | 0.276 | 0.39 |
| LU99A | 0.359 | 0.349 | 0.264 | 0.216 | 0.237 | 0.68 | 0.524 | 0.432 | 0.205 | 0.306 | 0.343 | 0.22 | 0.241 | 0.207 | 0.233 | 0.803 | 0.712 | 0.477 | 0.53 | 0.314 |
| HCC-366 | 0.259 | 0.346 | 0.199 | 0.179 | 0.101 | 0.78 | 0.65 | 0.353 | 0.331 | 0.046 |  |  |  |  |  | 1.09 | 0.887 | 0.483 | 0.315 | 0.07 |
| EKVX | 0.396 | 0.362 | 0.35 | 0.281 | 0.284 | 0.543 | 0.613 | 0.512 | 0.508 | 0.641 | 0.95 | 0.856 | 0.41 | 0.776 | 0.496 | 1.13 | 1.01 | 0.903 | 0.699 | 0.607 |
| NCI-H522 | 0.9 | 1.2 | 1.07 | 0.898 | 0.923 | 0.95 | 0.912 | 0.861 | 0.82 | 0.788 | 0.831 | 1.33 | 1.18 | 1.08 | 1.27 |  |  |  |  |  |
| NCI-H1755 | 0.464 | 0.471 | 0.463 | 0.445 | 0.465 | 0.477 | 0.39 | 0.365 | 0.348 | 0.271 | 0.516 | 0.475 | 0.516 | 0.545 | 0.201 | 0.987 | 0.835 | 0.848 | 0.821 | 0.626 |
| NCI-H647 | 0.406 | 0.288 | 0.297 | 0.159 | 0.138 | 0.205 | 0.159 | 0.167 | 0.127 | 0.0682 | 0.239 | 0.155 | 0.102 | 0.0914 | 0.0951 | 0.911 | 0.59 | 0.678 | 0.589 | 0.273 |
| LC-2-ad | 0.464 | 0.439 | 0.442 | 0.336 | 0.38 | 0.54 | 0.545 | 0.496 | 0.277 | 0.336 | 1.02 | 0.897 | 0.767 | 0.753 | 0.717 | 0.984 | 0.486 | 0.491 | 0.443 | 0.185 |
| NCI-H1793 | 0.29 | 0.258 | 0.228 | 0.213 | 0.233 | 0.455 | 0.43 | 0.34 | 0.246 | 0.243 | 0.23 | 0.173 | 0.196 | 0.134 | 0.138 |  |  |  |  |  |
| HCC-827 | 0.455 | 0.495 | 0.472 | 0.349 | 0.439 | 0.372 | 0.363 | 0.446 | 0.403 | 0.431 | 1.06 | 0.471 | 0.279 | 0.365 | 0.256 | 0.975 | 0.955 | 0.858 | 0.68 | 0.68 |

From the supplement of paper PMC10307832
